One experiment concerns the target T1, human recombinant HDAC6 (Homo sapiens, UniProt Q9UBN7).
T1 construct: purchased Calbiochem Inc. 382180
T1 sequence (Q9UBN7 1-1215): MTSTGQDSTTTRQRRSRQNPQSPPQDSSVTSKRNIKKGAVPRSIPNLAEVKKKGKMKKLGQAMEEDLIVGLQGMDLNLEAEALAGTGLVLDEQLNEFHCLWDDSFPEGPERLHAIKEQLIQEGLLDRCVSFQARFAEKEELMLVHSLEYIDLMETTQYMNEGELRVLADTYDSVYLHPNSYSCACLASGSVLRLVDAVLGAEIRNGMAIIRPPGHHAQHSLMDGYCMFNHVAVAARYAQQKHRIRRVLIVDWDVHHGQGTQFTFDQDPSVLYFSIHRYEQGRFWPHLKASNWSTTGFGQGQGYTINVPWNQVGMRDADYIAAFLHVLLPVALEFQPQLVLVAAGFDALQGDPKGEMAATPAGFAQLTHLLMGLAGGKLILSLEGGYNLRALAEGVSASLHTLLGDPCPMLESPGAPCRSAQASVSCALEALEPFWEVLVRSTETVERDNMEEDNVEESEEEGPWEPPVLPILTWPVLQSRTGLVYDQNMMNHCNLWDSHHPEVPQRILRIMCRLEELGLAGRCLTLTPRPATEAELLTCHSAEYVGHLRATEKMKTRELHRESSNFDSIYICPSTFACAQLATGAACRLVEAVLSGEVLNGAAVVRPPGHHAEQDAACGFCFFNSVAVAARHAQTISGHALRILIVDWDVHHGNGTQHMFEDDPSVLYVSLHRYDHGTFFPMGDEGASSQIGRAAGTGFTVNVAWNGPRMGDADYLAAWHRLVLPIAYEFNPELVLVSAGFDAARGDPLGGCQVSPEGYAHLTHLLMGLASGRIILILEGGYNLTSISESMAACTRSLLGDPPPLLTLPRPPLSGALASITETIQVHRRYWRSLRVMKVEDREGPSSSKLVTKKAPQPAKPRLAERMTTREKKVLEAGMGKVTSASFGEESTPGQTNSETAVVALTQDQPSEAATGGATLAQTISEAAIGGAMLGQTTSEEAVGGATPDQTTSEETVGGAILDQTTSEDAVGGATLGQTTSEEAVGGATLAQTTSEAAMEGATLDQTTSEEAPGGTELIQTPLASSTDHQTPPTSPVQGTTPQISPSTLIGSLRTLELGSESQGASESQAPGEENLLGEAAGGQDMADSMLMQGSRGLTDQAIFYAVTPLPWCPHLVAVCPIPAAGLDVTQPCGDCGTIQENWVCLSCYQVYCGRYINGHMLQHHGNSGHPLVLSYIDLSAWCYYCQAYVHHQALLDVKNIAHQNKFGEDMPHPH
Kind of experiment: HDAC enzyme activity inhibition assay (HDAC Fluorimetric Drug Discovery Kit), HDAC6. In kind it is biochemical. As to conditions: for HDAC6 selectivity (fold): HDAC1 vs HDAC6; for IC50: human recombinant HDAC6, same protocol as HDAC1. The essentials: (§1)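 Recombinant human HDAC1 or HDAC6 (0.3 μg) reacted with 10 μM Fluor de Lys-SIRT1 substrate at 30 °C for 60 min. Developer added for 30 min, then fluorescence read at Ex 360/Em 460.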

The target in another experiment is T2, human recombinant HDAC1 (Homo sapiens, UniProt Q13547).
T2 construct: purchased Enzo Life Sciences, Inc. BML-SE456
T2 sequence (Q13547 whole entry): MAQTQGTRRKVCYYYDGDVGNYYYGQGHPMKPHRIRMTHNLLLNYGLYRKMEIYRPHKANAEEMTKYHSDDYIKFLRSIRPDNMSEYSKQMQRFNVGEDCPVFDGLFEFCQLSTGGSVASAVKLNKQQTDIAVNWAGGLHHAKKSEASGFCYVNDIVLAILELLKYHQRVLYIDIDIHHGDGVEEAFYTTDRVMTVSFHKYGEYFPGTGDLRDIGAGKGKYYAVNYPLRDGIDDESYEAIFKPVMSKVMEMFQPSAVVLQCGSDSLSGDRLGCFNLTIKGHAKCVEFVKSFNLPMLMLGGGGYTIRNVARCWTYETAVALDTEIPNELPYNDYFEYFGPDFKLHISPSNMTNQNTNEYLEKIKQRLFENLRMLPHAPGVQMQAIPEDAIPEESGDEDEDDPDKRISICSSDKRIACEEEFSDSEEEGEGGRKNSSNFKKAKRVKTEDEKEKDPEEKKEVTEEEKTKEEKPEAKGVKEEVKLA
Put plainly: HDAC enzyme activity inhibition assay (HDAC Fluorimetric Drug Discovery Kit), HDAC1. In kind it is biochemical. As to conditions: human recombinant HDAC1, Fluor de Lys-SIRT1 substrate, 30° C. 60 minutes. The essentials:
as §1

As for `CN1CC(N2CCC(F)(C(=O)N(Cc3ccc(-c4nnc(C(F)F)o4)cn3)c3cccc(F)c3)CC2)C1` [Compound 3389, N-((5-(5-(difluoromethyl)-1,3,4-oxadiazol-2-yl)pyridin-2-yl)methyl)-4-fluoro-N-(3-fluorophenyl)-1-(1-methylazetidine-3-yl)piperidine-4-carboxamide], at human recombinant HDAC6, the “HDAC6 selectivity (fold)” value is listed as 885 fold. Also, the results for the IC50 on human recombinant HDAC6 and at human recombinant HDAC1 were 32.2 nM and 28500 nM, respectively.
The matching figures for `CCCN1CC(N2CCC(F)(C(=O)N(Cc3ccc(-c4nnc(C(F)F)o4)cn3)c3cccc(F)c3)CC2)C1` [Compound 3390, N-((5-(5-(difluoromethyl)-1,3,4-oxadiazol-2-yl)pyridin-2-yl)methyl)-4-fluoro-N-(3-fluorophenyl)-1-(1-propylazetidine-3-yl)piperidin-4-carboxamide]: 1,015 fold, 23.8 nM and 24200 nM.
With `CCCCN1CC(N2CCC(F)(C(=O)N(Cc3ccc(-c4nnc(C(F)F)o4)cn3)c3cccc(F)c3)CC2)C1` [Compound 3391, 1-(1-butylazetidine-3-yl)-N-((5-(5-(difluoromethyl)-1,3,4-oxadiazol-2-yl)pyridin-2-yl)methyl)-4-fluoro-N-(3-fluorophenyl)piperidine-4-carboxamide], the “HDAC6 selectivity (fold)” value on human recombinant HDAC6 was 1,361 fold. The IC50 at human recombinant HDAC6 was 20.9 nM; on human recombinant HDAC1 it was 28500 nM.
For `CC(C)CN1CC(N2CCC(F)(C(=O)N(Cc3ccc(-c4nnc(C(F)F)o4)cn3)c3cccc(F)c3)CC2)C1` [Compound 3392, N-((5-(5-(difluoromethyl)-1,3,4-oxadiazol-2-yl)pyridin-2-yl)methyl)-4-fluoro-N-(3-fluorophenyl)-1-(1-isobutylazetidine-3-yl)piperidine-4-carboxamide] the same measures were 2,348 fold, 19 nM and 44600 nM.
For `CC(C)N1CC(N2CCC(F)(C(=O)N(Cc3ccc(-c4nnc(C(F)F)o4)cn3)c3cccc(F)c3)CC2)C1` [Compound 3393, N-((5-(5-(difluoromethyl)-1,3,4-oxadiazol-2-yl)pyridin-2-yl)methyl)-4-fluoro-N-(3-fluorophenyl)-1-(1-isopropylazetidine-3-yl)piperidin-4-carboxamide] the same measures were 2,717 fold, 18.4 nM and > 50000 nM.
In the case of `O=C(N(Cc1ccc(-c2nnc(C(F)F)o2)cn1)c1cccc(F)c1)C1(F)CN(C2CN(C3CCC3)C2)C1` [Compound 3394, 1′-cyclobutyl-N-((5-(5-(difluoromethyl)-1,3,4-oxadiazol-2-yl)pyridin-2-yl)methyl)-3-fluoro-N-(3-fluorophenyl)-[1,3′-biazetidine]-3-carboxamide], on human recombinant HDAC6, the “HDAC6 selectivity (fold)” value is 1,886 fold and the 50% inhibitory concentration (IC50) came to 26.5 nM. Also, the IC50 at human recombinant HDAC1 is > 50000 nM.
The matching figures for `O=C(N(Cc1ccc(-c2nnc(C(F)F)o2)cn1)c1cccc(F)c1)C1(F)CN(C2CN(C3COC3)C2)C1` [Compound 3395, N-((5-(5-(difluoromethyl)-1,3,4-oxadiazol-2-yl)pyridin-2-yl)methyl)-3-fluoro-N-(3-fluorophenyl)-1′-(oxetan-3-yl)-[1,3′-biazetidine]-3-carboxamide]: 1,388 fold, 36 nM and > 50000 nM.
For `O=C(N(Cc1ccc(-c2nnc(C(F)F)o2)cn1)c1cccc(F)c1)C1(F)CN(C2CN(C3CCCC3)C2)C1` [Compound 3396, 1′-cyclopentyl-N-((5-(5-(difluoromethyl)-1,3,4-oxadiazol-2-yl)pyridin-2-yl)methyl)-3-fluoro-N-(3-fluorophenyl)-[1,3′-biazetidine]-3-carboxamide] the same measures were 1,618 fold, 19.5 nM and 31600 nM.

The term IC50 denotes the midpoint of a concentration-inhibition curve.

For the origin of these results see patent publication US20230278995A1, “1,3,4-OXADIAZOLE DERIVATIVE COMPOUNDS AS HISTONE DEACETYLASE 6 INHIBITOR, AND THE PHARMACEUTICAL COMPOSITION COMPRISING THE SAME” (CHONG KUN DANG PHARMACEUTICAL CORP., priority 2020, published 2023).
